# Experiment: human liver microsome (HLM) metabolic stability assay
# Format: in vitro ADME
# Details: human liver microsomes; % hepatic blood flow calculated from t1/2
# How it was run: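 Compounds at 1 uM incubated with human liver microsomes plus NADPH at 37° C., sampled at 0, 5, 15, 30 and 60 min into cold acetonitrile and quantified by LC/MS/MS. t½ from the slope of ln % remaining vs time; CLint, CLh and % Qh derived from it (n=1).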
row,Structure (SMILES),HLM (% Qh)
1,CCOc1c(C(=O)O)cnn1-c1cccc(-c2cccc(C)c2OCc2ccc3c(c2C)CCN(C[C@H]2CCCO2)CC3)n1 [Compound 233],26
2,COc1c(C(=O)O)cnn1-c1cccc(-c2cccc(C)c2OCc2ccc3c(c2F)CCN(C[C@H]2COCCO2)C3)n1 [Compound 234],<24
3,CCOc1c(C(=O)O)cnn1-c1cccc(-c2cccc(C)c2OCc2ccc3c(c2C)CCN(C[C@@H]2CCCO2)CC3)n1 [Compound 235],29
4,CCOc1c(C(=O)O)cnn1-c1cccc(-c2cccc(C)c2OCc2ccc3c(c2C)CCN(C[C@@H]2CCCCO2)C3)n1 [Compound 236],<24
5,COc1c(C(=O)O)cnn1-c1cccc(-c2cccc(C)c2OCc2cc(C)c3c(c2)CCN(C2CCCOC2)C3)n1 (stereo not drawn) [Compound 237],<24
6,COc1c(C(=O)O)cnn1-c1cccc(-c2cccc(C)c2OCc2ccc3c(c2C)CCN(C2CCCOC2)C3)n1 (stereo not drawn) [Compound 238],<24
7,COc1c(C(=O)O)cnn1-c1cccc(-c2cccc(C)c2OCc2cc(C)c3c(c2)CCN(CC2(C)COC2)C3)n1 [Compound 239],25
8,COc1c(C(=O)O)cnn1-c1cccc(-c2cccc(C)c2OCc2cc(C)c3c(c2)CCN(CC2COCCO2)C3)n1 (stereo not drawn) [Compound 240],<24
9,CCOc1c(C(=O)O)cnn1-c1cccc(-c2cccc(C)c2OCc2cc(C)c3c(c2)CCN(C2CCOC2)C3)n1 (stereo not drawn) [Compound 241],<24
10,COc1c(C(=O)O)cnn1-c1cccc(-c2cccc(C)c2OCc2cc(C)c3c(c2)CCN(C2CCOC2)C3)n1 (stereo not drawn) [Compound 242],<24
11,CCOc1c(C(=O)O)cnn1-c1cccc(-c2cccc(C)c2OCc2cc(C)c3c(c2)CCN(CC2COCCO2)C3)n1 (stereo not drawn) [Compound 243],<24
12,COCC(C)N1CCc2cc(COc3c(C)cccc3-c3cccc(-n4ncc(C(=O)O)c4OC)n3)cc(C)c2C1 (stereo not drawn) [Compound 244],<24
13,CCOc1c(C(=O)O)cnn1-c1cccc(-c2cccc(C)c2OCc2ccc3c(c2)CCCN(C2CCCOC2)C3)n1 (stereo not drawn) [Compound 245],<24
14,COc1c(C(=O)O)cnn1-c1cccc(-c2cccc(C)c2OCc2ccc3c(c2)CN(CC2COCCO2)C3)n1 (stereo not drawn) [Compound 247],<24
15,CCc1cc(COc2c(C)cccc2-c2cccc(-n3ncc(C(=O)O)c3OC)n2)cc2c1CN(C1CCOCC1)CC2 [Compound 248],<24
16,CCc1cc(COc2c(C)cccc2-c2cccc(-n3ncc(C(=O)O)c3OC)n2)cc2c1CN(C1COC1)CC2 [Compound 249],<24
17,COc1c(C(=O)O)cnn1-c1cccc(-c2cccc(C)c2OCc2cc(C#N)c3c(c2)CCN(C2CCOCC2)C3)n1 [Compound 250],<24
18,COc1c(C(=O)O)cnn1-c1cccc(-c2cccc(C)c2OCc2ccc3c(c2F)CCN([C@H]2CCOC2)C3)n1 [Compound 251],<24
19,COc1c(C(=O)O)cnn1-c1cccc(-c2cccc(C)c2OCc2ccc3c(c2F)CCN([C@@H]2CCOC2)C3)n1 [Compound 252],<24
20,COc1c(C(=O)O)cnn1-c1cccc(-c2cccc(C)c2OCc2cc(F)c3c(c2)CCN([C@@H]2CCOC2)C3)n1 [Compound 253],<24
21,COc1c(C(=O)O)cnn1-c1cccc(-c2cccc(C)c2OCc2cc(F)c3c(c2)CCN([C@H]2CCOC2)C3)n1 [Compound 254],<24
